Test results as given in patent US11273141B2, “Low-dose carbachol compositions and methods for treatment of night vision disturbance” (VYLUMA INC., priority 2020, dated 2022).
“Also recorded” adds a separate entry of the source.

How the values were obtained:
Dutch Belted Rabbits = experiment: Pupillary diameter (pupillometry) after single ocular administration, rabbit eye model; type: in vivo
Protocol: Study design: 3 Dutch Belted Rabbits (pigmented breed)/group received a single ocular administration of test articles (one drop per eye) at 3 concentrations (tested one week apart). After a 2-week rest period, combinations were tested. Ocular Irritation was assessed using a modified Draize test. Intraocular pressure (IOP) was measured at baseline, 1 h, 4 h, 6 h and 24 h. Pupillary Diameter was measured at baseline, 15 min, 1 h, 4 h and 6 h after dosing.
Due to the variation in pupillary diameter and IOP between rabbits and between eyes within rabbits, the data for pupillary diameter and IOP were normalized and presented with error bars (SD). A change of 15% to 20% approximates a pupillary diameter change of 1 mm. In human, a reduction of pupillary diameter of about 2 mm is clinically generally desired.

human individuals = experiment: Miotic response (dose response, eye color) to carbachol formulations in human; type: in vivo
Text: FIG. 7 is a graph depicting exemplary results for a dose response in human using a carbachol formulation according to the inventive subject matter.
FIG. 8 is a graph depicting exemplary results for miotic response in human individuals of different eye color using a 0.29% carbachol formulation according to the inventive subject matter.
FIG. 9 is a graph depicting exemplary results for miotic response in human individuals of different eye color using a 0.50% carbachol formulation according to the inventive subject matter.
FIG. 10 is a graph depicting exemplary results for miotic response in human individuals of different eye color using a 0.75% carbachol formulation according to the inventive subject matter.
To optimize the concentration of carbachol in the topical ophthalmic formulations, the inventors tested various dosages, and the table below depicts the composition for the carbachol formulations used.
Exemplary results for the miotic effect of carbachol at 0.29%, 0.50%, and 0.75% are depicted in FIG. 7.

[1] = known side effects; cited from earlier work
pupillary muscle = experiment: Effect of benzalkonium chloride on the miotic effect of carbachol; type: in vivo; settings: carbachol 0.025% to 0.075%
Text: In still further experiments, the inventors investigated the effect of benzalkonium chloride on the miotic effect of carbachol. To that end, different concentrations of BAC were employed between 0.005% and 0.02% at carbachol concentrations between 0.025% and 0.075%, and the results are shown in FIGS. 6A-6C.

[2] = 0.5% and 1%, one drop per eye, rabbit

Molecule: Brc1c(NC2=NCCN2)ccc2nccnc12 [Brimonidine]
- effect on pupillary diameter (in words) (Dutch Belted Rabbits; doses tested, concentration not given, rabbit): little to no effect

Molecule: C[N+](C)(C)CCOC(N)=O [Carbachol, carbamoylcholine]
- duration of action (Dutch Belted Rabbits; carbachol doses tested, rabbit): 2 to 4 h
- duration of miotic efficacy (human individuals; 0.5%, single dose): 3 h
- saturation of dose response (human individuals; tested formulations): 0.5%

Molecule: COc1ccc2c3c1O[C@H]1C[C@@H](O)C=C[C@@]31CCN(C)C2 [Galantamine]
- duration of reduction in pupillary diameter (Dutch Belted Rabbits; 2% (high dose) alone, rabbit): at least 1 h
- decrease in pupillary diameter (Dutch Belted Rabbits; 2% alone, rabbit): 1-2 mm

Molecule: Cc1ccc(N(CC2=NCCN2)c2cccc(O)c2)cc1 [Phentolamine]
- decrease in the pupil (Dutch Belted Rabbits; [2]): approximately 1 mm
- duration of decrease in the pupil (Dutch Belted Rabbits; [2]): at least 6 h
- duration of reduction in pupillary diameter (Dutch Belted Rabbits; all doses, FIG. 1, rabbit): at least 6 h
- reduction in pupillary diameter (in words) (Dutch Belted Rabbits; all doses, FIG. 1, rabbit): a reduction in pupillary diameter occurred at all doses

Molecule: CCN(C)C(=O)Oc1cccc([C@H](C)N(C)C)c1 [Rivastigmine]
- decrease in pupillary diameter (Dutch Belted Rabbits; 1% alone, rabbit): 1 mm
- effect on pupillary diameter (in words) (Dutch Belted Rabbits; 1% alone, rabbit): very low effects as compared to carbachol; also recorded: performed substantially similar to Phentolamine; also recorded: desirable effect

Molecule: CC(=O)OC1CN2CCC1CC2 (stereo not shown) [aceclidine, 1-azabicyclo[2.2.2]octan-3-yl acetate]
- side effects [1]: increased salivation and bradycardia

Molecule: N-Alkyl-N-benzyl-N,N-dimethyl-ammonium chloride [BAC]
- effect of BAC on miotic effect of carbachol (pupillary muscle; BAC 0.005%): minimal effect
- effect of BAC on miotic effect of carbachol (pupillary muscle; BAC 0.01%): somewhat more pronounced
- effect of BAC on miotic effect of carbachol (pupillary muscle; BAC at least 0.02%): significant
